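Dose response: 5 concentrations. Exposure: 48 h. Format: 96-well plates. Endpoint: linear interpolation; highest concentration if not reached. TGI denotes the concentration required for complete inhibition of growth.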
What was measured:
Test in all cases: NCI-60 cell line screen, 48 h
[1] = system: COLO 205 colon
[2] = system: SR leukemia
[3] = system: MDA-N
[4] = system: NCI/ADR-RES ovarian
[5] = system: EKVX NSCLC
[6] = system: HL-60(TB) leukemia
[7] = system: UO-31 renal
[8] = system: SF-295 CNS
[9] = system: SNB-19 CNS
[10] = system: HOP-92 NSCLC
[11] = system: NCI-H23 lung
[12] = system: A549 NSCLC
[13] = system: DU-145 prostate
[14] = system: UACC-62 melanoma
[15] = system: KM12 colon
[16] = system: RPMI-8226 leukemia
[17] = system: SK-OV-3 ovarian
[18] = system: OVCAR-3 ovarian
[19] = system: HT29 colon
[20] = system: MCF7 breast
[21] = system: SK-MEL-28 melanoma
[22] = system: OVCAR-8 ovarian
[23] = system: K-562 leukemia
[24] = system: NCI-H522 lung
[25] = system: IGROV1 ovarian
[26] = system: HS 578T breast
[27] = system: MDA-MB-231 breast
[28] = system: BT-549 breast
[29] = system: MOLT-4 leukemia
[30] = system: T-47D breast
[31] = system: NCI-H226 lung
[32] = system: SF-268 CNS
[33] = system: LOX IMVI melanoma
[34] = system: MALME-3M melanoma
[35] = system: 786-0 renal
[36] = system: TK-10 renal
[37] = system: CCRF-CEM leukemia
[38] = system: OVCAR-4 ovarian
[39] = system: SN12C renal
[40] = system: U251 CNS
[41] = system: ACHN renal
[42] = system: CAKI-1 renal
[43] = system: HOP-62 NSCLC
[44] = system: SF-539 CNS
[45] = system: HCT-116 colon
[46] = system: MDA-MB-435
[47] = system: A498 renal
[48] = system: UACC-257 melanoma
[49] = system: SW-620 colon
[50] = system: SK-MEL-5 melanoma
[51] = system: RXF 393 renal
[52] = system: SK-MEL-2 melanoma
[53] = system: M14 melanoma
[54] = system: PC-3 prostate
[55] = system: OVCAR-5 ovarian
[56] = system: NCI-H460 lung
[57] = system: HCC-2998 colon
[58] = system: SNB-75 CNS
[59] = system: HCT-15 colon

Measured: TGI

O=c1[nH]nc(Cc2ccccc2)n1O
not listed: [51] | [52] | [53] | [54] | [55] | [56] | [57] | [58] | [59]
> 100 µM: all other assays above

CC1(C(=O)O)CCC(C(=O)O)C(C)(C)O1 (stereo not given)
not listed: [2] | [6] | [27] | [35] | [47] | [59]
> 100 µM: all other assays above

COC(=O)C(=O)C(C(=O)OC)C(=O)C(=O)Nc1ccccc1C(N)=O (stereo not given)
not listed: [1] | [13] | [23] | [56]
> 100 µM: all other assays above

C[C@H]1CC[C@@H]2[C@@H](C)C[C@H]3[C@@H]4C(C)(C)OC(=O)[C@]4(C)C(=O)[C@@]23C1=O
68.1 µM: [30]
not listed: [2] | [7] | [40] | [51] | [52] | [54]
> 100 µM: all other assays above

CC(=O)Oc1ccc2oc(=O)cc(C)c2c1
not listed: [14] | [17] | [54] | [55] | [59]
> 100 µM: all other assays above

— PubChem BioAssay (NCI)
